# Source: ChEMBL document CHEMBL4765227, “Hit to lead optimization of a series of N-[4-(1,3-benzothiazol-2-yl)phenyl]acetamides as monoacylglycerol lipase inhibitors with potential anticancer activity” (Eur J Med Chem, 2016)
# Columns and labels:
# Assay type in all cases: functional
# Conditions in all cases: read-out: GI
# SK-MEL-5 = assay: Growth inhibition of human SK-MEL-5 cells at 10 uM incubated for 48 hrs by sulforhodamine B assay relative to control
# SNB-75 = assay: Growth inhibition of human SNB-75 cells at 10 uM incubated for 48 hrs by sulforhodamine B assay relative to control
# CCRF-CEM = assay: Growth inhibition of human CCRF-CEM cells at 10 uM incubated for 48 hrs by sulforhodamine B assay relative to control
# NCI-H522 = assay: Growth inhibition of human NCI-H522 cells at 10 uM incubated for 48 hrs by sulforhodamine B assay relative to control
# RXF 393 = assay: Growth inhibition of human RXF 393 cells at 10 uM incubated for 48 hrs by sulforhodamine B assay relative to control
# A549 = assay: Growth inhibition of human A549/ATCC cells at 10 uM incubated for 48 hrs by sulforhodamine B assay relative to control
# DU-145 = assay: Growth inhibition of human DU-145 cells at 10 uM incubated for 48 hrs by sulforhodamine B assay relative to control
# SF-539 = assay: Growth inhibition of human SF-539 cells at 10 uM incubated for 48 hrs by sulforhodamine B assay relative to control
# UACC-257 = assay: Growth inhibition of human UACC-257 cells at 10 uM incubated for 48 hrs by sulforhodamine B assay relative to control
# HOP-92 = assay: Growth inhibition of human HOP-92 cells at 10 uM incubated for 48 hrs by sulforhodamine B assay relative to control
# UO-31 = assay: Growth inhibition of human UO-31 cells at 10 uM incubated for 48 hrs by sulforhodamine B assay relative to control
# MDA-MB-468 = assay: Growth inhibition of human MDA-MB-468 cells at 10 uM incubated for 48 hrs by sulforhodamine B assay relative to control
# PC-3 = assay: Growth inhibition of human PC-3 cells at 10 uM incubated for 48 hrs by sulforhodamine B assay relative to control
# SK-MEL-28 = assay: Growth inhibition of human SK-MEL-28 cells at 10 uM incubated for 48 hrs by sulforhodamine B assay relative to control
# K562 = assay: Growth inhibition of human K562 cells at 10 uM incubated for 48 hrs by sulforhodamine B assay relative to control
# NCI-H23 = assay: Growth inhibition of human NCI-H23 cells at 10 uM incubated for 48 hrs by sulforhodamine B assay relative to control
# OVCAR-8 = assay: Growth inhibition of human OVCAR-8 cells at 10 uM incubated for 48 hrs by sulforhodamine B assay relative to control
# U-251 = assay: Growth inhibition of human U-251 cells at 10 uM incubated for 48 hrs by sulforhodamine B assay relative to control
# SNB-19 = assay: Growth inhibition of human SNB-19 cells at 10 uM incubated for 48 hrs by sulforhodamine B assay relative to control
# HT-29 = assay: Growth inhibition of human HT-29 cells at 10 uM incubated for 48 hrs by sulforhodamine B assay relative to control
# HCT-15 = assay: Growth inhibition of human HCT-15 cells at 10 uM incubated for 48 hrs by sulforhodamine B assay relative to control
# SR = assay: Growth inhibition of human SR cells at 10 uM incubated for 48 hrs by sulforhodamine B assay relative to control
# BT-549 = assay: Growth inhibition of human BT-549 cells at 10 uM incubated for 48 hrs by sulforhodamine B assay relative to control
# HOP-62 = assay: Growth inhibition of human HOP-62 cells at 10 uM incubated for 48 hrs by sulforhodamine B assay relative to control
# UACC-62 = assay: Growth inhibition of human UACC-62 cells at 10 uM incubated for 48 hrs by sulforhodamine B assay relative to control
# SK-OV-3 = assay: Growth inhibition of human SK-OV-3 cells at 10 uM incubated for 48 hrs by sulforhodamine B assay relative to control
# SF-295 = assay: Growth inhibition of human SF-295 cells at 10 uM incubated for 48 hrs by sulforhodamine B assay relative to control
# TK-10 = assay: Growth inhibition of human TK-10 cells at 10 uM incubated for 48 hrs by sulforhodamine B assay relative to control
# MDA-MB-231 = assay: Growth inhibition of human MDA-MB-231 cells at 10 uM incubated for 48 hrs by sulforhodamine B assay relative to control
# SF-268 = assay: Growth inhibition of human SF-268 cells at 10 uM incubated for 48 hrs by sulforhodamine B assay relative to control
# HCC 2998 = assay: Growth inhibition of human HCC 2998 cells at 10 uM incubated for 48 hrs by sulforhodamine B assay relative to control
# T47D = assay: Growth inhibition of human T47D cells at 10 uM incubated for 48 hrs by sulforhodamine B assay relative to control
# OVCAR-4 = assay: Growth inhibition of human OVCAR-4 cells at 10 uM incubated for 48 hrs by sulforhodamine B assay relative to control
# LOX IMVI = assay: Growth inhibition of human LOX IMVI cells at 10 uM incubated for 48 hrs by sulforhodamine B assay relative to control
# HCT-116 = assay: Growth inhibition of human HCT-116 cells at 10 uM incubated for 48 hrs by sulforhodamine B assay relative to control
# MDA-MB-435 = assay: Growth inhibition of human MDA-MB-435 cells at 10 uM incubated for 48 hrs by sulforhodamine B assay relative to control
# SN12C = assay: Growth inhibition of human SN12C cells at 10 uM incubated for 48 hrs by sulforhodamine B assay relative to control
# MOLT-4 = assay: Growth inhibition of human MOLT-4 cells at 10 uM incubated for 48 hrs by sulforhodamine B assay relative to control
# HL-60(TB) = assay: Growth inhibition of human HL-60(TB) cells at 10 uM incubated for 48 hrs by sulforhodamine B assay relative to control
# RPMI-8226 = assay: Growth inhibition of human RPMI-8226 cells at 10 uM incubated for 48 hrs by sulforhodamine B assay relative to control
# ACHN = assay: Growth inhibition of human ACHN cells at 10 uM incubated for 48 hrs by sulforhodamine B assay relative to control
# M14 = assay: Growth inhibition of human M14 cells at 10 uM incubated for 48 hrs by sulforhodamine B assay relative to control
# MCF7 = assay: Growth inhibition of human MCF7 cells at 10 uM incubated for 48 hrs by sulforhodamine B assay relative to control
# KM12 = assay: Growth inhibition of human KM12 cells at 10 uM incubated for 48 hrs by sulforhodamine B assay relative to control
compound,measurement,setting,value
O=C(CNC1CCCCC1)Nc1ccc(-c2nc3ccccc3s2)cc1,inhibition of growth at 10 µM,SK-MEL-5,9.16%
same,inhibition of growth at 10 µM,SNB-75,32.7%
same,inhibition of growth at 10 µM,CCRF-CEM,22.7%
same,inhibition of growth at 10 µM,NCI-H522,4.54%
same,inhibition of growth at 10 µM,RXF 393,31.5%
same,inhibition of growth at 10 µM,A549,12%
same,inhibition of growth at 10 µM,DU-145,10.7%
same,inhibition of growth at 10 µM,SF-539,12.5%
same,inhibition of growth at 10 µM,UACC-257,-4.65%
same,inhibition of growth at 10 µM,HOP-92,51.2%
same,inhibition of growth at 10 µM,UO-31,43.5%
same,inhibition of growth at 10 µM,MDA-MB-468,64.1%
same,inhibition of growth at 10 µM,PC-3,20.3%
same,inhibition of growth at 10 µM,SK-MEL-28,4.77%
same,inhibition of growth at 10 µM,K562,50.5%
same,inhibition of growth at 10 µM,NCI-H23,23.8%
same,inhibition of growth at 10 µM,OVCAR-8,0.73%
same,inhibition of growth at 10 µM,U-251,34.9%
same,inhibition of growth at 10 µM,SNB-19,9.04%
same,inhibition of growth at 10 µM,HT-29,37.7%
same,inhibition of growth at 10 µM,HCT-15,37.1%
same,inhibition of growth at 10 µM,SR,90.3%
same,inhibition of growth at 10 µM,BT-549,12.4%
same,inhibition of growth at 10 µM,HOP-62,14.8%
same,inhibition of growth at 10 µM,UACC-62,3.76%
same,inhibition of growth at 10 µM,SK-OV-3,9.23%
same,inhibition of growth at 10 µM,SF-295,14.1%
same,inhibition of growth at 10 µM,TK-10,-2.86%
same,inhibition of growth at 10 µM,MDA-MB-231,53.8%
same,inhibition of growth at 10 µM,SF-268,21.6%
same,inhibition of growth at 10 µM,HCC 2998,12.7%
same,inhibition of growth at 10 µM,T47D,30.9%
same,inhibition of growth at 10 µM,OVCAR-4,15.6%
same,inhibition of growth at 10 µM,LOX IMVI,26.1%
same,inhibition of growth at 10 µM,HCT-116,23%
same,inhibition of growth at 10 µM,MDA-MB-435,9.63%
same,inhibition of growth at 10 µM,SN12C,13.3%
same,inhibition of growth at 10 µM,MOLT-4,45.9%
same,inhibition of growth at 10 µM,HL-60(TB),33.2%
same,inhibition of growth at 10 µM,RPMI-8226,22.4%
same,inhibition of growth at 10 µM,ACHN,0.89%
same,inhibition of growth at 10 µM,M14,10.6%
same,inhibition of growth at 10 µM,MCF7,72%
same,inhibition of growth at 10 µM,KM12,16.1%
